Assay results as given in patent US20200362309A1, “Method for preparing BAP or BA cells” (Anagenesis Biotechnologies S.A.S., priority 2017, published 2020).

Test system: BA cells differentiated from hiPS-derived BAP
Assay: Lipolysis: free glycerol release by BA cells after forskolin stimulation
Type: cell-based, human
Details: forskolin 10 μM, 24 hours; BAP derived at day 12 or 16, 5 passages, differentiated for 17 days
Description: Lipolysis: The BAP were differentiated for 17 days. Then the cells were maintained for 24 hours in DMEM 1g/Iglucose supplemented with BSA 0,2%. Lipolysis was stimulated with forskolin (10 μM) for 24 hours.

C=C[C@@]1(C)CC(=O)[C@]2(O)[C@@]3(C)[C@@H](O)CCC(C)(C)[C@@H]3[C@H](O)[C@H](OC(C)=O)[C@@]2(C)O1 [forskolin]
increase of the free glycerol released, treated cells compared to untreated cells: about 60%
